This note sets out measurements from article PMC6273369, “Synthesis, Biological Evaluation and Molecular Modelling of 2′-Hydroxychalcones as Acetylcholinesterase Inhibitors” (Molecules, 2016).

For assay [1], the target named is T1, human AChE (Homo sapiens, UniProt P22303).
T1 construct: purchased Sigma-Aldrich
The experiment in a line: biochemical. The settings on record: for inhibition at 10 µM: read-out: % Inhibition at 10 µM; for IC50: mean ± SEM. The method, then:
AChE and BChE inhibition studies were performed in 96 well plates by the method of Ellman, et al.. […] The mixture was preincubated for 20 min at 37 °C before addition of 50 μL (0.120 mM) of the substrate, acetylthiocholine (ATC) iodide or butyrylthiocholine (BTC) iodide (depending on the enzyme). […] Each assay was performed in triplicate. […] The percentage of inhibition was calculated using the expression: (E–S)/E × 100 where E is the activity of the enzyme without test compound and S is the activity of the enzyme with test compound.
(§1) IC50 values were obtained from concentration-inhibition experiments by nonlinear regression analysis using PRISM® v5.0 (GraphPad Inc., San Diego, CA, USA).

For assay [2], the target named is T1, human AChE. The experiment in a line: Kinetic characterisation of AChE inhibition (Lineweaver-Burk, nonlinear regression mixed-model). Type of assay: biochemical. The settings on record: substrate acetylthiocholine 0.1-1.0 mM, read-out: Apparent Ki, human AChE. The method, then: […]. The mode of inhibition was investigated using Lineweaver–Burk plots of 1/initial reaction rate (1/V) against 1/substrate concentration (1/[S]). Apparent inhibition constant (Ki and Ki′) values were determined using the nonlinear regression mixed-model inhibition method in PRISM® v5.0 (GraphPad Inc.).

Another assay addresses T2, equine BChE (Equus caballus, UniProt P81908).
T2 construct: purchased Sigma-Aldrich
The assay can be described thus: Equine BChE inhibition, Ellman's method. The settings on record: for Selectivity for AChE: IC50 (BChE)/IC50 (AChE); for IC50: equine BChE, mean ± SEM. The format is biochemical. The method, then: The IC50 values of the four compounds that gave the greatest inhibition of AChE were also determined for equine BChE, which is readily available and is considered a good model for human BChE [23], as the equine form has 90% sequence identity compared to the human form. […].
AChE and BChE inhibition studies were performed in 96 well plates by the method of Ellman, et al.. 110 μL of sodium phosphate buffer (pH 8.0) was added to each well followed by 20 μL of test compound, 50 μL of 5,5′-dithiobis-(2-nitrobenzoic acid) (DTNB) (0.126 mM) and 20 μL of AChE or BChE (0.15 units/mL). The mixture was preincubated for 20 min at 37 °C before addition of 50 μL (0.120 mM) of the substrate, acetylthiocholine (ATC) iodide or butyrylthiocholine (BTC) iodide (depending on the enzyme). The hydrolysis of ATC or BTC was monitored using an Infinite® M200 PRO multimode reader (Tecan Group Ltd., Männedorf, Switzerland) by measuring the absorbance due to yellow 5-thio-2-nitrobenzoate anion at 412 nm every 30 s for 25 min. Each assay was performed in triplicate. […] The percentage of inhibition was calculated using the expression: (E–S)/E × 100 where E is the activity of the enzyme without test compound and S is the activity of the enzyme with test compound.
as §1
A general note: DTNB colorimetry detects thiols as they appear.

The mark [3] stands for this setting: human recombinant AChE, 10 µM, mean of triplicate, na = no activity observed at 10 µM.

Read-outs that look alike come from different tables or passages of the source.

T2 sequence (P81908 whole entry): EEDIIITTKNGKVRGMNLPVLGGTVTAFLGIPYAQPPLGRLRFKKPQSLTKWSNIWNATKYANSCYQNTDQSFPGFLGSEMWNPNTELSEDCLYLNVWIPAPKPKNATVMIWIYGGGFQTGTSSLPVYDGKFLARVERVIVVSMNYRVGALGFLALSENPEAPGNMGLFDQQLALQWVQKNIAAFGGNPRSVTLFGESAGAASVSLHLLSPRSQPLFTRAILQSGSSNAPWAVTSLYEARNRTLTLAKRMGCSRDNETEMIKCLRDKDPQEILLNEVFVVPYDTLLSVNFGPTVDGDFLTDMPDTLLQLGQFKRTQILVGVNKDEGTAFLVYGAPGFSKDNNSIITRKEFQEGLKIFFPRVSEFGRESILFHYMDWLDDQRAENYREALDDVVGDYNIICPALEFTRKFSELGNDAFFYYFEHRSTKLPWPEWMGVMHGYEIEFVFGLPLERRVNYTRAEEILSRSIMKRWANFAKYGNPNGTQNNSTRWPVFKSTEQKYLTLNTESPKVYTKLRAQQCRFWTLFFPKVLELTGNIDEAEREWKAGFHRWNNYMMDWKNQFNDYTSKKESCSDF
T1 sequence (P22303 32-614): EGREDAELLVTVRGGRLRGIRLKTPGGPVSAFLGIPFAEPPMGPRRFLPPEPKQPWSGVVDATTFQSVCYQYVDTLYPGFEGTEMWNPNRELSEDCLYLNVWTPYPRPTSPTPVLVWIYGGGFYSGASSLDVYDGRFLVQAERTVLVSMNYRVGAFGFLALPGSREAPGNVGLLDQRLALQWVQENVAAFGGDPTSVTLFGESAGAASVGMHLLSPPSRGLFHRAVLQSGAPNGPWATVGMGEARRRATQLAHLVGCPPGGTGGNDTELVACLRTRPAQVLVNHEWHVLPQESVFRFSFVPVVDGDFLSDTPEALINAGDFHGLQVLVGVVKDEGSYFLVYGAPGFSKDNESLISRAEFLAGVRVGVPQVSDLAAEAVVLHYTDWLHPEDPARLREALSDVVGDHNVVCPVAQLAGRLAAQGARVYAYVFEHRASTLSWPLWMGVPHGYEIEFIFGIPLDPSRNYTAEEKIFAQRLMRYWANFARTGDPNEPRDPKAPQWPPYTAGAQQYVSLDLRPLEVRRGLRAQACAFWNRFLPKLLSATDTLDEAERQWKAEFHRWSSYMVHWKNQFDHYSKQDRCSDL

As to `O=C(/C=C/c1ccccc1)c1ccccc1O` [Compound 1, 2′-Hydroxychalcone], on human AChE [1], the inhibition (commonly the percentage by which the read-out fell short of the control) at 10 µM amounted to 11%.
Regarding `CN(C)c1ccc(/C=C/C(=O)c2ccccc2O)cc1` [Compound 5, 2′-Hydroxy-4-(dimethylamino)chalcone], on human AChE [1] (setting [3]), the inhibition at 10 µM came out at 28%. Also, the half-inhibitory concentration (IC50) (usually the concentration needed to halve the response being measured) on human AChE [1] (human recombinant AChE) is 266 ± 48 µM.
As for `COc1ccc(/C=C/C(=O)c2ccccc2O)cc1` [Compound 6, 2′-Hydroxy-4-methoxychalcone], the inhibition at 10 µM on human AChE [1] amounted to 6%.
Regarding `O=C(/C=C/c1ccccc1Br)c1ccccc1O` [Compound 7, 2-Bromo-2′-hydroxychalcone], the inhibition at 10 µM on human AChE [1] (setting [3]) stood at 38%. Moreover, the IC50 at human AChE [1] (human recombinant AChE) was 55 ± 12 µM. Besides, the Ki on human AChE [2] is 40 µM. Also, at equine BChE, the “Selectivity for AChE” value amounted to 2.0 and the IC50 is 108 ± 18 µM.
Take `COc1cc(O)c(C(=O)/C=C/c2ccc(C)cc2)c(OC)c1` [Compound 9, 2′-Hydroxy-4′,6′-dimethoxy-4-methylchalcone]: the inhibition at 10 µM at human AChE [1] (setting [3]) is 23%. On human AChE [1] (human recombinant AChE), the IC50 amounted to 354 ± 33 µM.
In the case of `COc1cc(O)c(C(=O)/C=C/c2ccc(Br)cc2)c(OC)c1` [Compound 10, 4-Bromo-2′-hydroxy-4′,6′-dimethoxychalcone], the inhibition at 10 µM on human AChE [1] (setting [3]) worked out at 30%. Also, on human AChE [1] (human recombinant AChE), the IC50 is 41 ± 13 µM. For the same molecule, the Ki on human AChE [2] amounted to 31 µM. Moreover, on equine BChE, the “Selectivity for AChE” value was 1.4 and the IC50 turned out to be 59 ± 12 µM.
On to `COc1cc(O)c(C(=O)/C=C/c2ccc(N(C)C)cc2)c(OC)c1` [Compound 11, 2′-Hydroxy-4′,6′-dimethoxy-4-(dimethylamino)chalcone], for which the inhibition at 10 µM at human AChE [1] (setting [3]) stood at 5%.
Still for that read-out and setting: the result for `COc1ccc(/C=C/C(=O)c2c(O)cc(OC)cc2OC)cc1` [Compound 12, 2′-Hydroxy-4,4′,6′-trimethoxychalcone] reads 7%.
As to `COc1cc(O)c(C(=O)/C=C/c2ccccc2Br)c(OC)c1` [Compound 13, 2-Bromo-2′-hydroxy-4′,6′-dimethoxychalcone], the inhibition at 10 µM on human AChE [1] (setting [3]) amounted to 23%. Further, the figures for the IC50 on human AChE [1] (human recombinant AChE) and against equine BChE were 85 ± 16 µM and 71 ± 14 µM, respectively. The Ki at human AChE [2] came out at 113 µM.
With `COc1cc(O)c(C(=O)/C=C/c2cc(Cl)cc(Cl)c2O)c(OC)c1` [Compound 14, 3,5-Dichloro-2,2′-dihydroxy-4′,6′-dimethoxychalcone], the inhibition at 10 µM at human AChE [1] (setting [3]) amounted to 51%. Also, the IC50 on human AChE [1] (human recombinant AChE) turned out to be 73 ± 22 µM; against equine BChE, 81 ± 18 µM. For the same molecule, the Ki at human AChE [2] amounted to 56 µM. Also, the “Selectivity for AChE” value at equine BChE worked out at 1.1.
